Reference: ChEMBL document CHEMBL3797052 (Eur J Med Chem, 2016)

Experiments:
[1] = Antiproliferative activity against human HCC2998 cells assessed as cell growth at 10^-7 M after 48 hrs by sulforhodamine B assay; type: functional; settings: HCC 2998, 48 h, read-out: Activity
[2] = Antiproliferative activity against human NCI-ADR-RES cells assessed as growth inhibition after 48 hrs by sulforhodamine B assay; type: functional
[3] = Antiproliferative activity against human UACC257 cells assessed as cell growth at 10^-7 M after 48 hrs by sulforhodamine B assay; type: functional; settings: UACC-257, 48 h, read-out: Activity
[4] = Antiproliferative activity against human UACC257 cells assessed as cell growth at 10^-4 M after 48 hrs by sulforhodamine B assay; type: functional; settings: UACC-257, 48 h, read-out: Activity
[5] = Antiproliferative activity against human SKOV3 cells assessed as cell growth at 10^-4 M after 48 hrs by sulforhodamine B assay; type: functional; settings: SK-OV-3, 48 h, read-out: Activity
[6] = Antiproliferative activity against human IGROV1 cells assessed as cell growth at 10^-7 M after 48 hrs by sulforhodamine B assay; type: functional; settings: IGROV-1, 48 h, read-out: Activity
[7] = Antiproliferative activity against human TK10 cells assessed as cell growth at 10^-7 M after 48 hrs by sulforhodamine B assay; type: functional; settings: TK-10, 48 h, read-out: Activity
A498 = assay: Antiproliferative activity against human A498 cells assessed as cell growth at 10^-4 M after 48 hrs by sulforhodamine B assay; type: functional; settings: A498, 48 h, read-out: Activity
NCI-H460 = assay: Antiproliferative activity against human NCI-H460 cells assessed as cell growth at 10^-4 M after 48 hrs by sulforhodamine B assay; type: functional; settings: NCI-H460, 48 h, read-out: Activity
[8] = Antiproliferative activity against human SW620 cells assessed as cell growth at 10^-6 M after 48 hrs by sulforhodamine B assay; type: functional; settings: SW-620, 48 h, read-out: Activity
[9] = Antiproliferative activity against human UO31 cells assessed as cell growth at 10^-4 M after 48 hrs by sulforhodamine B assay; type: functional; settings: UO-31, 48 h, read-out: Activity
CYP1A2 = molecular target: T1, CYP1A2 (Homo sapiens, UniProt P05177); assay: Inhibition of recombinant human CYP1A2 assessed as remaining enzyme activity using CYP1A2 blue as substrate at 10 uM after 5 mins in presence of NADP by fluorescence plate reader analysis; type: ADME; settings: recombinant human CYP1A2, probe CYP1A2 blue, read-out: Activity
T1 sequence (P05177 whole entry): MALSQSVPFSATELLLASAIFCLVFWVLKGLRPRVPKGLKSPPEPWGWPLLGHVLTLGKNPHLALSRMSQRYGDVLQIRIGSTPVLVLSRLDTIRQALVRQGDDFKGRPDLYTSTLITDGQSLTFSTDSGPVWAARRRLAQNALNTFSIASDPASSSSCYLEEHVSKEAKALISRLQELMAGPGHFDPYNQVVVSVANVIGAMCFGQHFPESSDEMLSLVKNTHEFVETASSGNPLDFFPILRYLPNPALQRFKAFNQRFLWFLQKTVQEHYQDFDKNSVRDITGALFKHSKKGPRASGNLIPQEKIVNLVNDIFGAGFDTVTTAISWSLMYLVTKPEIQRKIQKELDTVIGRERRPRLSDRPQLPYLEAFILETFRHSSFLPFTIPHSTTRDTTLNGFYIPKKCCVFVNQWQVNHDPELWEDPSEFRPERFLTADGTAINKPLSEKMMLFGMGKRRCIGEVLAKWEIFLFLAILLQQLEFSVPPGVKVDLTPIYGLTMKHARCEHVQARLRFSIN

KM12 = assay: Antiproliferative activity against human KM12 cells assessed as growth inhibition after 48 hrs by sulforhodamine B assay; type: functional; settings: KM12, 48 h
[10] = Antiproliferative activity against human OVCAR8 cells assessed as cell growth at 10^-4 M after 48 hrs by sulforhodamine B assay; type: functional; settings: OVCAR-8, 48 h, read-out: Activity
[11] = Antiproliferative activity against human SF539 cells assessed as cell growth at 10^-8 M after 48 hrs by sulforhodamine B assay; type: functional; settings: SF-539, 48 h, read-out: Activity
[12] = Antiproliferative activity against human DU145 cells assessed as cell growth at 10^-7 M after 48 hrs by sulforhodamine B assay; type: functional; settings: DU-145, 48 h, read-out: Activity
EKVX = assay: Antiproliferative activity against human EKVX cells assessed as cell growth at 10^-4 M after 48 hrs by sulforhodamine B assay; type: functional; settings: read-out: Activity
[13] = Antiproliferative activity against human OVCAR5 cells assessed as cell growth at 10^-4 M after 48 hrs by sulforhodamine B assay; type: functional; settings: OVCAR-5, 48 h, read-out: Activity
ACHN [14] = assay: Antiproliferative activity against human ACHN cells assessed as growth inhibition after 48 hrs by sulforhodamine B assay; type: functional
[15] = Antiproliferative activity against human HCT15 cells assessed as cell growth at 10^-6 M after 48 hrs by sulforhodamine B assay; type: functional; settings: HCT-15, 48 h, read-out: Activity
[16] = Antiproliferative activity against human HOP62 cells assessed as cell growth at 10^-8 M after 48 hrs by sulforhodamine B assay; type: functional; settings: HOP-62, 48 h, read-out: Activity
NCI-H226 [17] = assay: Antiproliferative activity against human NCI-H226 cells assessed as cell growth at 10^-8 M after 48 hrs by sulforhodamine B assay; type: functional; settings: NCI-H226, 48 h, read-out: Activity
NCI-H522 = assay: Antiproliferative activity against human NCI-H522 cells assessed as cell growth at 10^-8 M after 48 hrs by sulforhodamine B assay; type: functional; settings: NCI-H522, 48 h, read-out: Activity
NCI-H226 [18] = assay: Antiproliferative activity against human NCI-H226 cells assessed as cell growth at 10^-6 M after 48 hrs by sulforhodamine B assay; type: functional; settings: NCI-H226, 48 h, read-out: Activity
[19] = Antiproliferative activity against human Hs 578T cells assessed as cell growth at 10^-4 M after 48 hrs by sulforhodamine B assay; type: functional; settings: read-out: Activity
SR = assay: Antiproliferative activity against human SR cells assessed as growth inhibition after 48 hrs by sulforhodamine B assay; type: functional
[20] = Antiproliferative activity against human HCC2998 cells assessed as cell growth at 10^-6 M after 48 hrs by sulforhodamine B assay; type: functional; settings: HCC 2998, 48 h, read-out: Activity
[21] = Antiproliferative activity against human COLO205 cells assessed as cell growth at 10^-6 M after 48 hrs by sulforhodamine B assay; type: functional; settings: COLO 205, 48 h, read-out: Activity
ACHN [22] = assay: Antiproliferative activity against human ACHN cells assessed as cell growth at 10^-6 M after 48 hrs by sulforhodamine B assay; type: functional; settings: read-out: Activity
[23] = Antiproliferative activity against human SF268 cells assessed as growth inhibition after 48 hrs by sulforhodamine B assay; type: functional; settings: SF-268, 48 h
[24] = Antiproliferative activity against human UO31 cells assessed as growth inhibition after 48 hrs by sulforhodamine B assay; type: functional; settings: UO-31, 48 h; for CC50: read-out: LC50 (the source's name)

CNC(=O)c1cc(Oc2ccc3nc(NC(=O)Nc4cc(C(F)(F)F)cc(C(F)(F)F)c4)sc3c2)ccn1
growth at 0.1 µM [1]: 105%
GI50 [2]: 1.27 µM
TGI [2]: 3.19 µM
growth at 0.1 µM [3]: 114%
growth at 100 µM [4]: -94%
growth at 100 µM [5]: -84%
growth at 0.1 µM [6]: 89%
growth at 0.1 µM [7]: 109%
growth at 100 µM (A498): -93%
growth at 100 µM (NCI-H460): -71%
growth at 1 µM [8]: 80%
growth at 100 µM [9]: -79%
activity at 5 min, 10 µM (CYP1A2): 110%
GI50 (KM12): 0.444 µM
LC50 (KM12): 7.96 µM
TGI (KM12): 2 µM
growth at 100 µM [10]: -96%
growth at 0.01 µM [11]: 96%
growth at 0.1 µM [12]: 97%
growth at 100 µM (EKVX): -56%
growth at 100 µM [13]: -74%
GI50 (ACHN [14]): 0.542 µM
LC50 (ACHN [14]): 5.7 µM
TGI (ACHN [14]): 1.98 µM
growth at 1 µM [15]: 76%
growth at 0.01 µM [16]: 85%
growth at 0.01 µM (NCI-H226 [17]): 84%
growth at 0.01 µM (NCI-H522): 95%
growth at 1 µM (NCI-H226 [18]): 71%
growth at 100 µM [19]: -38%
GI50 (SR): 0.514 µM
LC50 (SR): 31.6 µM
TGI (SR): 2.6 µM
growth at 1 µM [20]: 66%
growth at 1 µM [21]: 46%
growth at 1 µM (ACHN [22]): 32%
GI50 [23]: 1.27 µM
LC50 (concentration killing 50% of cells) [23]: 6.44 µM
TGI [23]: 2.86 µM
GI50 [24]: 1.26 µM
TGI [24]: 2.68 µM
CC50 [24]: 5.71 µM

CNC(=O)c1cc(Oc2ccc3nc(NC(=O)c4cc(C(F)(F)F)cc(C(F)(F)F)c4)sc3c2)ccn1
growth at 0.1 µM [1]: 108%
GI50 [2]: 3.67 µM
LC50 (concentration killing 50% of cells) [2]: > 100 µM
TGI [2]: 19.1 µM
growth at 0.1 µM [3]: 95%
growth at 100 µM [4]: -45%
growth at 100 µM [5]: -56%
growth at 0.1 µM [6]: 98%
growth at 0.1 µM [7]: 94%
growth at 100 µM (A498): -65%
growth at 100 µM (NCI-H460): -69%
growth at 1 µM [8]: 105%
growth at 100 µM [9]: -51%
activity at 5 min, 10 µM (CYP1A2): 98.3%
GI50 (KM12): 2.7 µM
LC50 (KM12): 92.7 µM
TGI (KM12): 11 µM
growth at 100 µM [10]: -61%
growth at 0.01 µM [11]: 101%
growth at 0.1 µM [12]: 105%
growth at 100 µM (EKVX): -27%
growth at 100 µM [13]: -48%
GI50 (ACHN [14]): 3.26 µM
LC50 (ACHN [14]): 43.2 µM
TGI (ACHN [14]): 11.8 µM
growth at 1 µM [15]: 96%
growth at 0.01 µM [16]: 99%
growth at 0.01 µM (NCI-H226 [17]): 99%
growth at 0.01 µM (NCI-H522): 90%
growth at 1 µM (NCI-H226 [18]): 101%
growth at 100 µM [19]: -42%
GI50 (SR): 3.37 µM
LC50 (SR): > 100 µM
TGI (SR): 15 µM
growth at 1 µM [20]: 102%
growth at 1 µM [21]: 99%
growth at 1 µM (ACHN [22]): 96%
GI50 [23]: 2.66 µM
LC50 (concentration killing 50% of cells) [23]: > 100 µM
TGI [23]: 17 µM
GI50 [24]: 2.19 µM
TGI [24]: 8.95 µM
CC50 [24]: 97 µM

CNC(=O)c1cc(Oc2ccc3nc(NC(=O)Nc4ccc(Cl)c(Cl)c4)sc3c2)ccn1
growth at 0.1 µM [1]: 101%
GI50 [2]: 2.3 µM
LC50 (concentration killing 50% of cells) [2]: > 100 µM
TGI [2]: 5.09 µM
growth at 0.1 µM [3]: 92%
growth at 100 µM [4]: 7%
growth at 100 µM [5]: -69%
growth at 0.1 µM [6]: 92%
growth at 0.1 µM [7]: 112%
growth at 100 µM (A498): -42%
growth at 100 µM (NCI-H460): -17%
growth at 1 µM [8]: 128%
growth at 100 µM [9]: -72%
activity at 5 min, 10 µM (CYP1A2): 104%
GI50 (KM12): 3 µM
LC50 (KM12): > 100 µM
TGI (KM12): > 100 µM
growth at 100 µM [10]: -52%
growth at 0.01 µM [11]: 92%
growth at 0.1 µM [12]: 101%
growth at 100 µM (EKVX): 23%
GI50 (ACHN [14]): 2.1 µM
LC50 (ACHN [14]): > 100 µM
TGI (ACHN [14]): 5.56 µM
growth at 1 µM [15]: 91%
growth at 0.01 µM [16]: 105%
growth at 0.01 µM (NCI-H226 [17]): 104%
growth at 0.01 µM (NCI-H522): 98%
growth at 1 µM (NCI-H226 [18]): 109%
growth at 100 µM [19]: -22%
GI50 (SR): 6.47 µM
LC50 (SR): > 100 µM
TGI (SR): > 100 µM
growth at 1 µM [20]: 100%
growth at 1 µM [21]: 106%
growth at 1 µM (ACHN [22]): 88%
GI50 [23]: 1.98 µM
LC50 (concentration killing 50% of cells) [23]: 8.97 µM
TGI [23]: 4.21 µM
GI50 [24]: 2.08 µM
TGI [24]: 3.96 µM
CC50 [24]: 7.56 µM

CNC(=O)c1cc(Oc2ccc(NC(=O)Nc3ccc(Cl)c(C(F)(F)F)c3)cc2)ccn1 [SORAFENIB]
GI50 [2]: 2.51 µM
TGI [2]: 7.94 µM
TGI (KM12): 7.94 µM
GI50 (ACHN [14]): 2.51 µM
TGI (ACHN [14]): 12.6 µM
GI50 (SR): 3.16 µM
TGI (SR): 100 µM
GI50 [23]: 2.51 µM
TGI [23]: 10 µM
GI50 [24]: 2.51 µM
TGI [24]: 7.94 µM
CC50 [24]: 39.8 µM
